Source: patent US9199946B2, “Pyrimidinone carboxamide inhibitors of endothelial lipase” (BRISTOL-MYERS SQUIBB COMPANY, priority 2012, dated 2015)

The molecules below were run against T1, Endothelial lipase (EL) (Homo sapiens, UniProt Q9Y5X9) (assay: Endothelial lipase (EL) enzymatic assay with fluorescent substrate A10070 in DMPG vesicles). Settings: conditioned media from HT-1080 cells overexpressing endogenous EL; 20 min preincubation at 37° C.; read-out: EL IC50.
T1 construct: HT-1080 cells, which were transformed by RAGE technology (Athersys) to overexpress endogenous EL; endogenous in cells; conditioned medium used as the enzyme source
T1 sequence (Q9Y5X9 21-500): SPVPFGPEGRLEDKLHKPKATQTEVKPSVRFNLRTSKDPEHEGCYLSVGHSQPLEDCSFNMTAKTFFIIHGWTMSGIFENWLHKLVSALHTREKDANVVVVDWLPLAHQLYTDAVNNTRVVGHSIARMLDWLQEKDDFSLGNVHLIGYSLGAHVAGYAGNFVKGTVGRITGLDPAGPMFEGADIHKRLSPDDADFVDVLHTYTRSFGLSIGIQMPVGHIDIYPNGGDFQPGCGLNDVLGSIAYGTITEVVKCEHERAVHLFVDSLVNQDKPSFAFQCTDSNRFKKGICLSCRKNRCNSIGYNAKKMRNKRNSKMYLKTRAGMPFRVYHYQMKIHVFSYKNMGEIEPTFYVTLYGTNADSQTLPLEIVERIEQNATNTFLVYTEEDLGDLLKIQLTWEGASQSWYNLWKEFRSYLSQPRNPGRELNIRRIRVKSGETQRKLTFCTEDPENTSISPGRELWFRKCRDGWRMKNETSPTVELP
Format: biochemical
Procedure: Endothelial lipase activity was measured using a fluorescent substrate, A10070, (Invitrogen, CA) doped into an artificial vesicle containing DMPG (Avanti Polar Lipids) as the excipient. Vesicles were prepared by combining 285 μL of 1 mM DMPG in a 1:1 mixture of MeOH and CHCl3 with 15 μL of 1 mM A10070 in a 1:1 mixture of MeOH and CHCl3. The mixture was dried under nitrogen and resuspended in 150 μL of 50 mM HEPES pH 8.0 buffer containing 100 mM NaCl and 0.2 mM EDTA. The sample was allowed to sit at rt for 15 min and then was sonicated 3×4 mins on ice with a Branson Sonicator using duty cycle 1. This preparation provides vesicles with a mole fraction of 0.05 for the FRET substrate.
The enzymatic assay was measured using white, opaque 96-well half area plates. Each well contained 60 μL of assay buffer (50 mM HEPES pH 8.0, 50 mM NaCl and 1 mM CaCl2) and 2 ul of a DMSO solution containing compound of interest. Conditioned media obtained from HT-1080 cells, which were transformed by RAGE technology (Athersys) to overexpress endogenous EL, was added and the reaction was allowed to incubate for 20 min at 37° C. with gentle agitation. The reaction was started by the addition of 20 μL of a 1:4 dilution of vesicles. The final total reaction volume was 100 μL. The reaction rates were measured on a Gemini plate reader with an excitation wavelength of 488 nm and an emission of 530 nm. Readings were taken every 20 seconds for 10 min with agitation between each reading. The slope of the linear portion of the readout was used to calculate the rate of the reaction.

| Compound | IC50 |
| --- | --- |
| O=C(N[C@H]1CC[C@@H](c2ccccc2)CC1)c1[nH]c(=O)[nH]c(=O)c1N[C@@H]1C[C@H]2CC[C@@H]1C2 [Example 231, 5-((1R,2R,4S)-bicyclo[2.2.1]heptan-2-ylamino)-2,6-dioxo-N-(cis-4-phenylcyclohexyl)-1,2,3,6-tetrahydropyrimidine-4-carboxamide] | 3.84 µM |
| O=C(N[C@@H]1CCCc2c(OCc3ccccc3)cccc21)c1[nH]c(=O)[nH]c(=O)c1O [Example 258, (R)-N-(5-(benzyloxy)-1,2,3,4-tetrahydronaphthalen-1-yl)-5-hydroxy-2,6-dioxo-1,2,3,6-tetrahydropyrimidine-4-carboxamide] | 0.01 µM |
| O=C(NC1CCCC(c2cnn(Cc3ccccc3)c2)C1)c1[nH]c(=O)[nH]c(=O)c1O (racemic) [Example 289, N-(3-(1-benzyl-1H-pyrazol-4-yl)cyclohexyl)-5-hydroxy-2,6-dioxo-1,2,3,6-tetrahydropyrimidine-4-carboxamide] | 0.01 µM |
| O=C(N[C@H]1CC[C@@H](NC(=O)c2[nH]c(=O)[nH]c(=O)c2O)CC1)OCc1ccccc1 [Example 281, benzyl cis-4-(5-hydroxy-2,6-dioxo-1,2,3,6-tetrahydropyrimidine-4-carboxamido)cyclohexylcarbamate] | 0.875 µM |
| Nc1c(C(=O)NC2CCC(NC(=O)Cc3nc4ccc(-c5ccccc5)cc4s3)C2)[nH]c(=O)[nH]c1=O (stereo not shown) [Example 135, 5-amino-2,6-dioxo-N-(3-(2-(6-phenylbenzo[d]thiazol-2-yl)acetamido)cyclopentyl)-1,2,3,6-tetrahydropyrimidine-4-carboxamide] | 3.68 µM |

Same assay, conditions: range observed in the EL assay; read-out: EL IC50 values

| Compound | IC50 |
| --- | --- |
| O=C(NC1CCCc2c(CCc3ccccc3)cccc21)c1[nH]c(=O)[nH]c(=O)c1O (stereo not shown) [Example 284, 5-hydroxy-2,6-dioxo-N-(5-phenethyl-1,2,3,4-tetrahydronaphthalen-1-yl)-1,2,3,6-tetrahydropyrimidine-4-carboxamide] | ≤ 10 µM |
| Nc1c(C(=O)NC2CCCC(c3ccccc3)C2)[nH]c(=O)[nH]c1=O (stereo not shown) [Example 101, 5-amino-2,6-dioxo-N-(3-phenylcyclohexyl)-1,2,3,6-tetrahydropyrimidine-4-carboxamide] | ≤ 10 µM |
| O=C(N[C@H]1CC[C@@H](c2ccccc2)CC1)c1[nH]c(=O)[nH]c(=O)c1N[C@@H]1C[C@H]2CC[C@@H]1C2 [Example 231, 5-((1R,2R,4S)-bicyclo[2.2.1]heptan-2-ylamino)-2,6-dioxo-N-(cis-4-phenylcyclohexyl)-1,2,3,6-tetrahydropyrimidine-4-carboxamide] | ≤ 10 µM |
| O=C(N[C@H]1CC[C@@H](c2ccccc2)CC1)c1[nH]c(=O)[nH]c(=O)c1NCc1ccccc1C(F)(F)F [Example 215, 2,6-dioxo-N-(cis-4-phenylcyclohexyl)-5-(2-(trifluoromethyl)benzylamino)-1,2,3,6-tetrahydropyrimidine-4-carboxamide] | ≤ 10 µM |
| O=C(N[C@@H]1CCc2ccc(C(F)(F)F)cc21)c1[nH]c(=O)[nH]c(=O)c1O [Example 248, (R)-5-hydroxy-2,6-dioxo-N-(6-(trifluoromethyl)-2,3-dihydro-1H-inden-1-yl)-1,2,3,6-tetrahydropyrimidine-4-carboxamide] | ≤ 10 µM |
| Nc1c(C(=O)N[C@@H]2CCC(c3ccc(Cl)c(Cl)c3)c3ccccc32)[nH]c(=O)[nH]c1=O (single isomer, unassigned) [Example 37] | ≤ 10 µM |
| Nc1c(C(=O)NC2CCC(c3cccc(OCc4ccccc4)c3)C2)[nH]c(=O)[nH]c1=O (single isomer, unassigned) [Example 155, 5-amino-N-(3-(3-(benzyloxy)phenyl)cyclopentyl)-2,6-dioxo-1,2,3,6-tetrahydropyrimidine-4 carboxamide] | ≤ 10 µM |
| CC(C)(C)C1CCC(NC(=O)c2[nH]c(=O)[nH]c(=O)c2N)CC1 (stereo not shown) [Example 44, 5-amino-N-(4-tert-butylcyclohexyl)-2,6-dioxo-1,2,3,6-tetrahydropyrimidine-4-carboxamide] | ≤ 10 µM |
| COc1ccc2c(c1)C(NC(=O)c1[nH]c(=O)[nH]c(=O)c1N)CCC2 (stereo not shown) [Example 39, 5-amino-N-(7-methoxy-1,2,3,4-tetrahydronaphthalen-1-yl)-2,6-dioxo-1,2,3,6-tetrahydropyrimidine-4-carboxamide] | ≤ 10 µM |
| CC(C)(C)OC(=O)N1CCC(NC(=O)c2[nH]c(=O)[nH]c(=O)c2N)c2ccccc21 (stereo not shown) [Example 16, tert-butyl 4-(5-amino-2,6-dioxo-1,2,3,6-tetrahydropyrimidine-4-carboxamido)-3,4-dihydroquinoline-1(2H)-carboxylate] | ≤ 10 µM |
| COC(=O)[C@H]1CC[C@@H](NC(=O)c2[nH]c(=O)[nH]c(=O)c2N)CC1 [Example 43, cis-methyl 4-(5-amino-2,6-dioxo-1,2,3,6-tetrahydropyrimidine-4-carboxamido) cyclohexanecarboxylate] | ≤ 10 µM |
| O=C(N[C@@H]1CCCc2c(OCc3ccccc3)cccc21)c1[nH]c(=O)[nH]c(=O)c1O [Example 258, (R)-N-(5-(benzyloxy)-1,2,3,4-tetrahydronaphthalen-1-yl)-5-hydroxy-2,6-dioxo-1,2,3,6-tetrahydropyrimidine-4-carboxamide] | ≤ 10 µM |
| NC(=O)c1ccc(N2CCC(NC(=O)c3[nH]c(=O)[nH]c(=O)c3N)C2)nc1 (stereo not shown) [Example 188, 5-amino-N-(1-(5-carbamoylpyridin-2-yl)pyrrolidin-3-yl)-2,6-dioxo-1,2,3,6-tetrahydropyrimidine-4-carboxamide] | ≤ 10 µM |
| CC(C)Cn1cc(-c2ccc([C@@H]3CC[C@H](NC(=O)c4[nH]c(=O)[nH]c(=O)c4N)C3)cc2)cn1 [Example 172, 5-amino-N-((1S,3R)-3-(4-(1-isobutyl-1H-pyrazol-4-yl)phenyl)cyclopentyl)-2,6-dioxo-1,2,3,6-tetrahydropyrimidine-4-carboxamide] | ≤ 10 µM |
| O=C(NC1CCCC(c2cnn(Cc3ccccc3)c2)C1)c1[nH]c(=O)[nH]c(=O)c1O (racemic) [Example 289, N-(3-(1-benzyl-1H-pyrazol-4-yl)cyclohexyl)-5-hydroxy-2,6-dioxo-1,2,3,6-tetrahydropyrimidine-4-carboxamide] | ≤ 10 µM |
| O=C(N[C@H]1CCC[C@H](c2ccccc2)C1)c1[nH]c(=O)[nH]c(=O)c1O [Example 277, 5-hydroxy-2,6-dioxo-N-((1S,3S)-3-phenylcyclohcxyl)-1,2,3,6-tetrahydropyrimidine-4-carboxamide] | ≤ 10 µM |
| Nc1c(C(=O)N[C@H]2CCCc3c(OCC(F)(F)F)cccc32)[nH]c(=O)[nH]c1=O [Example 35, (S)-5-amino-2,6-dioxo-N-(5-(2,2,2-trifluoroethoxy)-1,2,3,4-tetrahydronaphthalen-1-yl)-1,2,3,6-tetrahydropyrimidine-4-carboxamide] | ≤ 10 µM |
| O=C(N[C@@H]1CC[C@@H](C(=O)Nc2cnn(Cc3ccccc3)c2)C1)c1[nH]c(=O)[nH]c(=O)c1O [Example 295, N-((1R,3R)-3-(1-benzyl-1H-pyrazol-4-ylcarbamoyl)cyclopentyl)-5-hydroxy-2,6-dioxo-1,2,3,6-tetrahydropyrimidine-4-carboxamide] | ≤ 10 µM |
| O=C(N[C@H]1CC[C@@H](NC(=O)c2[nH]c(=O)[nH]c(=O)c2O)CC1)OCc1ccccc1 [Example 281, benzyl cis-4-(5-hydroxy-2,6-dioxo-1,2,3,6-tetrahydropyrimidine-4-carboxamido)cyclohexylcarbamate] | ≤ 10 µM |
| O=C(N[C@H]1CC[C@@H](c2ccccc2)CC1)c1[nH]c(=O)[nH]c(=O)c1NCc1cc(F)cc(C(F)(F)F)c1 [Example 236, 5-(3-fluoro-5-(trifluoromethyl)benzylamino)-2,6-dioxo-N-((1s,4s)-4-phenylcyclohexyl)-1,2,3,6-tetrahydropyrimidine-4-carboxamide] | ≤ 10 µM |
| CC(CO)Nc1c(C(=O)N[C@H]2CC[C@@H](c3ccccc3)CC2)[nH]c(=O)[nH]c1=O (stereo partly drawn) [Example 235, 5-(1-hydroxypropan-2-ylamino)-2,6-dioxo-N-(cis-4-phenylcyclohexyl)-1,2,3,6-tetrahydropyrimidine-4-carboxamide] | ≤ 10 µM |
| Nc1c(C(=O)NC2CCOc3ccccc32)[nH]c(=O)[nH]c1=O (single isomer, unassigned; enantiomer b) [Example 197, 5-amino-N-(chroman-4-yl)-2,6-dioxo-1,2,3,6-tetrahydropyrimidine-4-carboxamide (Enantiomer B)] | ≤ 10 µM |
| Nc1c(C(=O)NC2CCC(NC(=O)Cc3nc4ccc(-c5ccccc5)cc4s3)C2)[nH]c(=O)[nH]c1=O (stereo not shown) [Example 135, 5-amino-2,6-dioxo-N-(3-(2-(6-phenylbenzo[d]thiazol-2-yl)acetamido)cyclopentyl)-1,2,3,6-tetrahydropyrimidine-4-carboxamide] | ≤ 10 µM |
| Nc1c(C(=O)N[C@H]2CC[C@H](c3ccc(Cl)c(Cl)c3)C2)[nH]c(=O)[nH]c1=O [Example 69, 5-amino-N-((1S,3S)-3-(3,4-dichlorophenyl)cyclopentyl)-2,6-dioxo-1,2,3,6-tetrahydropyrimidine-4-carboxamide] | ≤ 10 µM |
| O=C(Nc1ccc2c(c1)CCC[C@H]2NC(=O)c1[nH]c(=O)[nH]c(=O)c1O)c1ccccc1 [Example 288, (R)-N-(6-benzamido-1,2,3,4-tetrahydronaphthalen-1-yl)-5-hydroxy-2,6-dioxo-1,2,3,6-tetrahydropyrimidine-4-carboxamide] | ≤ 10 µM |
| Nc1c(C(=O)NC2CCC(c3ccc(OCc4ccccc4)cc3)C2)[nH]c(=O)[nH]c1=O (single isomer, unassigned) [Example 151, 5-amino-N-(3-(4-(benzyloxy)phenyl)cyclopentyl)-2,6-dioxo-1,2,3,6-tetrahydropyrimidine-4-carboxamide] | ≤ 10 µM |
